{"source": "paper PMC3132048", "about": "“Treatment of experimental adjuvant arthritis with a novel folate receptor-targeted folic acid-aminopterin conjugate” (Arthritis Research & Therapy, 2011)", "key": {"[1]": {"system": "cytokine/chemokine release by rat TG-macs", "experiment": "Rat cytokine array analysis after LPS/IFNγ co-stimulation", "assay_type": "cell-based", "conditions": "100 nM, 2-hour pulse, 70-hour chase, LPS 5 μg/ml plus IFNγ 100 ng/ml last 24 hours", "description": "This analysis was performed on rat TG-macs to compare EC0746 against AMT and MTX for their abilities to inhibit cytokine production after LPS/IFNγ co-stimulation. Using our standard condition of 2-hour pulse plus a 70-hour chase period, rat TG-macs (harvested the day before) were given vehicle (media only), EC0746 (100 nM), EC0746 (100 nM) plus 100-fold molar excess of FA (10 μM), or FA alone (10 μM). For unconjugated base drugs, 100 nM AMT and MTX were present continuously for the entire 72-hour incubation period. Twenty-four hours prior to the end of incubation, LPS (5 μg/ml) and IFNγ (100 ng/ml) were added to the cells to stimulate cytokine production. The presence of cytokines/chemokines in the culture media was detected using a rat cytokine antibody array kit (R&D Systems) capable of detecting 29 analytes in duplicate spots. The total pixel intensity for each spot in the array was quantitated using the NIH ImageJ software, subtracted from the background, and averaged for each analyte."}, "[2]": {"biological_target": "T1, dihydrofolate reductase (DHFR) (Mus musculus, UniProt P00375)", "T1 construct": "endogenous in cells; host or cells: RAW264.7 cells (FR-positive subclone of ATCC TIB71)", "T1 sequence (P00375 1-187)": "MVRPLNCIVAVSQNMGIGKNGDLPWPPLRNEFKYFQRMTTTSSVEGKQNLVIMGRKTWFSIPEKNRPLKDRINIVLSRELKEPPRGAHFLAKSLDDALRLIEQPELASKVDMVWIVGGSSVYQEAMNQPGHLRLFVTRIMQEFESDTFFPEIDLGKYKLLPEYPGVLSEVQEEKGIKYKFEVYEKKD", "experiment": "Dihydrofolate reductase inhibition assay in RAW264.7 whole cell lysates", "assay_type": "cell-based, murine", "conditions": "100 nM plus 100-fold excess FA (10 μM), 2-hour pulse, 22-hour chase", "description": "RAW264.7 cells growing in FFRPMI medium in 10 cm cell culture dishes (BD Falcon, Lincoln Park, NJ, USA) were treated with EC0746 (100 nM), EC0746 (100 nM) plus 100-fold molar excess of FA (10 μM), or FA alone (10 μM). After a 2-hour exposure, the drug-containing media were replaced and the cells were allowed to incubate further for 22 hours in fresh FFRPMI medium (referred in the text as a 22-hour chase). Meanwhile, AMT and MTX were kept at 100 nM for the entire 24-hour incubation period. All cells were subsequently lysed in the radioimmunoprecipitation assay lysis buffer, and DHFR activities in the whole cell lysates were determined using a commercial DHFR assay kit (Sigma-Aldrich). This spectrophotometric assay monitors the enzymatic conversion of dihydrofolic acid to tetrahydrofolic acid by DHFR and the disappearance of the co-factor nicotinamide adenine dinucleotide phosphate at 340 nm. The results were normalized to the values of the untreated control cells."}, "[3]": {"system": "rat TG-macs", "experiment": "Viability of thioglycollate-elicited peritoneal macrophages", "assay_type": "cell-based", "conditions": "72-hour incubation; no effect at concentrations as high as stated", "procedure": "Female Lewis rats (175 to 200 g) were purchased from Harlan Sprague Dawley (Indianapolis, IN, USA) and were allowed to acclimate for 1 week. To obtain peritoneal macrophages, rats were dosed intraperitoneally with an aged thioglycollate (TG) medium (20 ml/kg) and euthanized 3 days later. The peritoneal cavity of the animals was lavaged with 60 ml ice-cold phosphate-buffered saline to collect peritoneal exudate. The TG-elicited macrophages in the peritoneal fluids were obtained after a red cell lysing step and a 2-hour adherence in folate-free RPMI 1640 medium (Mediatech, Manassas, VA, USA) containing 1% heat-activated fetal calf serum and antibiotics. The purity of the resulting macrophage population (herein referred to as rat TG-macs) was determined to be ~90% pure based on CD11b/c expression (data not shown). […] Unless otherwise specified, all cells were maintained in the folate-free RPMI 1640 medium containing 10% heat-activated fetal calf serum and antibiotics (FFRPMI) under a 5% CO2 atmosphere.\nUnlike RAW264.7 cells, rat TG-macs display little proliferative activity ex vivo and therefore were used in our studies to represent inflammatory macrophages in a low proliferative state. […] LPS (5 μg/ml) and IFNγ (100 ng/ml) were then added to the treated cells 24 hours prior to the end of incubation to stimulate the release of cytokines/chemokines, which were then detected with a rat cytokine antibody array."}, "[4]": {"system": "TNFα production in RAW264.7 cells", "experiment": "LPS-stimulated TNFα production (ELISA)", "assay_type": "cell-based, murine", "description": "RAW264.7 cells in 96-well plates (3.5 × 10^4 cells/well) were treated with 10-fold serial dilutions of EC0746 (≤1 μM) in FFRPMI medium without and with 100-fold molar excess of FA. After a 2-hour exposure, the drug-containing media were replaced and the cells were allowed to incubate further for 70 hours (referred in the text as a 70-hour chase). In comparison, the cells were also treated continuously with AMT for 72 hours. Four hours prior to the end of incubation, LPS was added to the treated cells at a final concentration of 100 ng/ml. Then 100 μl culture supernatants were collected for TNFα analysis by ELISA. The cell viability was assessed by adding XTT to the remaining media for an additional 4 hours following the manufacturer's instructions. To evaluation of a cytostatic effect, RAW264.7 cells seeded at 1 × 10^6 cells/well in six-well plates were subjected to 2-hour exposure and a 70-hour chase with 0, 0.1, 10, and 1000 nM EC0746 without and with excess FA. At the end of the incubation (no LPS added), the surviving cells (that is, still viable cells) were recovered and redistributed in equal numbers in fresh medium for an additional 72 hours. The cell proliferation was again assessed by the XTT assay. All results were expressed as the percentage absorbance (minus background) relative to the untreated control cells."}, "[5]": {"biological_target": "T2, FRα (FRα-expressing KB cells) (Homo sapiens, UniProt P15328)", "T2 construct": "both KB cells and CHO-FRβ cells were used as the sources of FR; endogenous in cells; host or cells: KB cells", "T2 sequence (P15328 25-257)": "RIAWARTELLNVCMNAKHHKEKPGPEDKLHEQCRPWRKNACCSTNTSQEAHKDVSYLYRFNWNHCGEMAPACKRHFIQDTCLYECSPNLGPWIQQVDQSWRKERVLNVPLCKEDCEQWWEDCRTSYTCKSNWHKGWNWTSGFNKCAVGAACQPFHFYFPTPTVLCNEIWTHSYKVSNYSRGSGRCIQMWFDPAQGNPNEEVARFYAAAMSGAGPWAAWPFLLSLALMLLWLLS", "experiment": "Relative affinity assay: displacement of [3H]FA from KB cells", "assay_type": "binding", "conditions": "37°C, competitor of [3H]FA, inverse molar ratio to displace 50%", "description": "The relative affinities of EC0746, AMT, and MTX were determined according to a previously established method except that both KB cells and CHO-FRβ cells were used as the sources of FR [33]. KB cells are a human cancer cell line known for elevated expression of FRα. CHO-FRβ cells were obtained from Manohar Ratnam, Department of Biochemistry and Cancer Biology, The University of Toledo (Toledo, OH, USA). This cell line was originally generated by stable integration and amplification of a human FRβ cDNA expression construct in CHO-K1 cells."}}, "data": [{"smiles": "Nc1nc(N)c2nc(CNc3ccc(C(=O)N[C@@H](CCC(=O)NNC(=O)OCCSSC[C@H](NC(=O)[C@H](CCC(=O)NC[C@H](O)[C@@H](O)[C@H](O)[C@H](O)CO)NC(=O)[C@H](CCC(=O)O)NC(=O)[C@H](CCC(=O)NC[C@H](O)[C@@H](O)[C@H](O)[C@H](O)CO)NC(=O)[C@H](CCC(=O)O)NC(=O)[C@H](CCC(=O)NC[C@H](O)[C@@H](O)[C@H](O)[C@H](O)CO)NC(=O)CC[C@H](NC(=O)c4ccc(NCc5cnc6nc(N)[nH]c(=O)c6n5)cc4)C(=O)O)C(=O)O)C(=O)O)cc3)cnc2n1", "note": "[EC0746]", "values": [{"measurement": "Number of released cytokines/chemokines (of ~19) showing FR-specific inhibition", "setting": "[1]", "result": 11}, {"measurement": "DHFR inhibitory activity with excess FA", "setting": "[2]", "result": "blocked by excess FA"}, {"measurement": "Concentration affecting TG-macs viability", "setting": "[3]", "result": "> 10", "unit": "µM"}, {"measurement": "IC50", "setting": "[4]; 2-hour pulse, 70-hour chase, LPS 100 ng/ml last 4 hours, read-out: Relative 50% inhibitory concentration, TNFα after LPS stimulation", "result": "~1.6", "unit": "nM"}, {"measurement": "TNFα effect competitive by excess FA", "setting": "[4]; 100-fold molar excess FA", "result": 100, "unit": "%"}, {"measurement": "Relative affinity value (FA = 1)", "setting": "[5]", "result": 0.50}]}]}
